Experimental data published in patent publication US8871681B2, “Herbicidal compositions comprising 4-amino-3-chloro-5-fluoro-6-(4-chloro-2-fluoro-3-methoxyphenyl) pyridine-2-carboxylic acid or a derivative thereof and certain sulfonylureas” (Dow AgroSciences LLC, priority 2012, dated 2014).

How the values were obtained:
[1] = system: GALAP (Galium aparine, cleavers); assay: Post-emergence foliar-applied weed control in cereal crops, greenhouse (Example III); format: in vivo, Galium aparine (L.); conditions: Table 51, after 20-22 days, 10 gai/ha alone
Method: Seeds of the desired test plant species were planted in Sun Gro MetroMix® 306 planting mixture, which typically has a pH of 6.0 to 6.8 and an organic matter content of about 30 percent, in plastic pots with a surface area of 103.2 square centimeters (cm^2). When required to ensure good germination and healthy plants, a fungicide treatment and/or other chemical or physical treatment was applied. The plants were grown for 7-36 days in a greenhouse with an approximate 14 hour photoperiod which was maintained at about 18° C. during the day and 17° C. during the night. Nutrients and water were added on a regular basis and supplemental lighting was provided with overhead metal halide 1000-Watt lamps as necessary. […]
Measured aliquot of benzyl ester of 4-amino-3-chloro-5-fluoro-6-(4-chloro-2-fluoro-3-methoxy-phenyl)pyridine-2-carboxylic acid (Compound A) was placed in 25 milliliter (mL) glass vials and diluted in a volume of 1.25% (v/v) Agri-dex crop oil concentrated to obtain stock solutions. […]
The treated plants and control plants were placed in a greenhouse as described above and watered by sub-irrigation to prevent wash-off of the test compounds. After 20-22 days, the condition of the test plants as compared with that of the control plants was determined visually and scored on a scale of 0 to 100 percent where 0 corresponds to no injury and 100 corresponds to complete kill. […]

[2] = system: LAMPU (Lamium purpureum, purple deadnettle); assay: as above; format: in vivo, Lamium purpureum (L.); conditions: Table 51, after 20-22 days, 10 gai/ha alone
Method: (§1) Seeds of the desired test plant species were planted in Sun Gro MetroMix® 306 planting mixture, which typically has a pH of 6.0 to 6.8 and an organic matter content of about 30 percent, in plastic pots with a surface area of 103.2 square centimeters (cm^2). When required to ensure good germination and healthy plants, a fungicide treatment and/or other chemical or physical treatment was applied. The plants were grown for 7-36 days in a greenhouse with an approximate 14 hour photoperiod which was maintained at about 18° C. during the day and 17° C. during the night. Nutrients and water were added on a regular basis and supplemental lighting was provided with overhead metal halide 1000-Watt lamps as necessary. The plants were employed for testing when they reached the second or third true leaf stage.
(§2) Treatments consisted of the benzyl ester of 4-amino-3-chloro-5-fluoro-6-(4-chloro-2-fluoro-3-methoxy-phenyl)pyridine-2-carboxylic acid (Compound A), formulated as an SC (suspension concentrate), and a second cereal herbicide alone and in combination.
(§3) Measured aliquot of benzyl ester of 4-amino-3-chloro-5-fluoro-6-(4-chloro-2-fluoro-3-methoxy-phenyl)pyridine-2-carboxylic acid (Compound A) was placed in 25 milliliter (mL) glass vials and diluted in a volume of 1.25% (v/v) Agri-dex crop oil concentrated to obtain stock solutions. Compound requirements are based upon a 12 mL application volume at a rate of 187 liters per hectare (L/ha). Spray solutions of the second cereal herbicide and experimental compound mixtures were prepared by adding the stock solutions to the appropriate amount of dilution solution to form 12 mL spray solution with active ingredients in two- and three-way combinations. Formulated compounds were applied to the plant material with an overhead Mandel track sprayer equipped with an 8002E nozzle calibrated to deliver 187 L/ha over an application area of 0.503 square meters (m^2) at a spray height of 18 inches (46 cm) above average plant canopy. Control plants were sprayed in the same manner with the solvent blank.
(§4) The treated plants and control plants were placed in a greenhouse as described above and watered by sub-irrigation to prevent wash-off of the test compounds. After 20-22 days, the condition of the test plants as compared with that of the control plants was determined visually and scored on a scale of 0 to 100 percent where 0 corresponds to no injury and 100 corresponds to complete kill.
(§5) Colby's equation was used to determine the herbicidal effects expected from the mixtures (Colby, S. R. 1967. Calculation of the synergistic and antagonistic response of herbicide combinations. Weeds 15:20-22.).
(§6) The following equation was used to calculate the expected activity of mixtures containing two active ingredients, A and B: Expected=A+B−(A×B/100)

[3] = system: VERPE (Veronica persica, bird's-eye speedwell); assay: as above; format: in vivo, Veronica persica Poir.; conditions: Table 51, after 20-22 days, 10 gai/ha alone
Method: as §1, §2, §3, §4, §5, §6

[4] = system: LEFCH (Leptochloa chinensis, Chinese sprangletop); assay: Postemergence foliar-applied weed control, direct seeded rice, greenhouse (Example I); format: in vivo, Leptochloa chinensis (L.) Nees; conditions: 22 DAA
How it was run: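 Greenhouse-grown plants in loam/sandy loam–grit soil (14 h photoperiod, ~29/26 °C) were sprayed postemergence at the first to fourth true leaf stage. Compound A (acid equivalent basis) and ALS-inhibiting sulfonylureas (active ingredient basis) were applied alone and in combination in 1.25% (v/v) crop oil concentrate at 187 L/ha by track sprayer; controls received solvent blank.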

[5] = system: IPOHE (Ipomoea hederacea, ivyleaf morningglory); assay: as above; format: in vivo, Ipomoea hederacea Jacq.; conditions: 22 DAA
Text: Seeds or nutlets of the desired test plant species were planted in a soil matrix prepared by mixing a loam or sandy loam soil (e.g., 28.6 percent silt, 18.8 percent clay, and 52.6 percent sand, with a pH of about 5.8 and an organic matter content of about 1.8 percent) and calcareous grit in an 80 to 20 ratio. The soil matrix was contained in plastic pots with a volume of 1 quart and a surface area of 83.6 square centimeters (cm^2). When required to ensure good germination and healthy plants, a fungicide treatment and/or other chemical or physical treatment was applied. The plants were grown for 8-22 days in a greenhouse with an approximate 14 h photoperiod which was maintained at about 29° C. during the day and 26° C. during the night. Nutrients (Peters Excel® 15-5-15 5-Ca 2-Mg and iron chelate) were applied in the irrigation solution as needed and water was added on a regular basis. Supplemental lighting was provided with overhead metal halide 1000-Watt lamps as necessary. The plants were employed for testing when they reached the first through fourth true leaf stage.
Treatments consisted of the acid or esters of 4-amino-3-chloro-5-fluoro-6-(4-chloro-2-fluoro-3-methoxy-phenyl)pyridine-2-carboxylic acid (Compound A), each formulated as an SC, and various herbicidal components alone and in combination. Forms of compound A were applied on an acid equivalent basis.
Other herbicidal components were applied on an active ingredient basis and included acetolactate synthase (ALS)-inhibiting herbicides (sulfonylurea chemical class) azimsulfuron formulated as Gulliver®, bensulfuron-methyl formulated as Londax® 60DF, cyclosulfamuron (technical material), ethoxysulfuron formulated as Sunrice® 15 WDG, flazasulfuron formulated as Katana®, flucetosulfuron formulated as Sukedachi® 1KG G, foramsulfuron formulated as Option®, imazosulfuron formulated as Brazzos® WG, iodosulfuron-methyl-sodium formulated as Hussar®, metsulfuron-methyl formulated as Lorate®, nicosulfuron formulated as Accent®, orthosulfamuron formulated as Strada® WG, primisulfuron-methyl (technical material), propyrisulfuron formulated as Zeta One®, rimsulfuron formulated as Matrix® WG, sulfometuron-methyl formulated as Oust®, and trifloxysulfuron-sodium formulated as Monument® 75WG.
(§7) Treatment requirements were calculated based upon the rates being tested, the concentration of active ingredient or acid equivalent in the formulation, and a 12 mL application volume at a rate of 187 L/ha.
For treatments comprised of formulated compounds, measured amounts of compounds were placed individually in 25 mL glass vials and diluted in a volume of 1.25% (v/v) Agri-Dex® crop oil concentrated to obtain 12× stock solutions. […] Application solutions were prepared by adding an appropriate amount of each stock solution (e.g., 1 mL) and diluted to the appropriate final concentrations with the addition of 10 mL of an aqueous mixture of 1.25% (v/v) crop oil concentrate so that the final spray solutions contained 1.25+/−0.05% (v/v) Agrcrop oil concentrate.
For treatments comprised of formulated and technical compounds, weighed amounts of the technical materials were placed individually in 25 mL glass vials and dissolved in a volume of 97:3 v/v acetone/DMSO to obtain 12× stock solutions, and measured amounts of the formulated compounds were placed individually in 25 mL glass vials and diluted in a volume of 1.25% (v/v) crop oil concentrate to obtain 12× stock solutions. […] Application solutions were prepared by adding an appropriate amount of each stock solution (e.g., 1 mL) and diluted to the appropriate final concentrations with the addition of an appropriate amount of an aqueous mixture of 1.5% (v/v) crop oil concentrate so that the final spray solutions contained 1.25% (v/v) crop oil concentrate. […]

[6] = system: SETFA (Setaria faberi, giant foxtail); assay: Pre-emergence soil-applied weed control, greenhouse (Example V); format: in vivo, Setaria faberi Herrm.; conditions: Table 59 (pre-emergence), 25 gai/ha alone
Text: Seeds or nutlets of the desired test plant species were planted in a soil matrix prepared by mixing a loam soil (32 percent silt, 23 percent clay, and 45 percent sand, with a pH of about 6.5 and an organic matter content of about 1.9 percent) and calcareous grit in an 80 to 20 ratio. The soil matrix was contained in plastic pots with a volume of 1 quart and a surface area of 83.6 square centimeters (cm^2).
Treatments consisted of the benzyl ester of 4-amino-3-chloro-5-fluoro-6-(4-chloro-2-fluoro-3-methoxy-phenyl)pyridine-2-carboxylic acid (compound A) formulated as an SC (suspension concentrate) and various herbicidal components alone and in combination. Forms of compound A were applied on an acid equivalent basis.
Other herbicidal components were applied on an acid equivalent or active ingredient basis and included the acetolactate synthase (ALS)-inhibiting herbicide, flazasulfuron, formulated as Katana®.
as §7
For treatments comprised of formulated compounds, measured amounts of compounds were placed individually in 25 mL glass vials and diluted in a volume of 1.25% (v/v) Agri-Dex® crop oil concentrate (COC) to obtain 12× stock solutions. […] Application solutions were prepared by adding an appropriate amount of each stock solution (e.g., 1 mL) and diluted to the appropriate final concentrations with the addition of 10 mL of an aqueous mixture of 1.25% (v/v) COC so that the final spray solutions contained 1.25% (v/v) COC. […]
The treated and control pots were placed in a greenhouse and top watered as needed. […] After approximately 4 weeks, the condition of the test plants as compared with that of the untreated plants was determined visually and scored on a scale of 0 to 100 percent where 0 corresponds to no injury or growth inhibition and 100 corresponds to complete kill. […]

[7] = system: SIDSP (Sida spinosa, prickly sida); assay: Post-emergence herbicidal activity of mixtures in forage crops, greenhouse (Example IV); format: in vivo, Sida spinosa L.; conditions: Table 58 (forage); foliar-applied; after approximately 21 days; 1.1 gai/ha alone
Method: as §1, with “Seeds or root cuttings” for “Seeds”, “126.6” for “103.2”, “14-60” for “7-36”, “approximately 28°” for “about 18°”, “24°” for “17°”, “BBCH13 to BBCH23” for “second or third true”
(§8) Treatments consisted of the benzyl ester of 4-amino-3-chloro-5-fluoro-6-(4-chloro-2-fluoro-3-methoxy-phenyl)pyridine-2-carboxylic acid (Compound A), formulated as a SC, and a second herbicide alone and in combination.
(§9) A measured aliquot of Compound A was placed in 25 milliliter (mL) glass vial and diluted in a volume of 1.25% (v/v) Agri-dex crop oil concentrated to obtain stock solutions. Compound requirements are based upon a 12 mL application volume at a rate of 187 liters per hectare (L/ha). Spray solutions of the second cereal herbicide and experimental compound mixtures were prepared by adding the stock solutions to the appropriate amount of dilution solution to form 12 mL spray solution with active ingredients in two- and three-way combinations. […]
(§10) The treated plants and control plants were placed in a greenhouse as described above and watered by sub-irrigation to prevent wash-off of the test compounds. After approximately 21 days, the condition of the test plants, as compared with that of the control plants, was determined visually and scored on a scale of 0 to 100 percent where 0 corresponds to no injury and 100 corresponds to complete kill. […]

[8] = system: CASOB (Cassia obtusifolia, sicklepod); assay: as above; format: in vivo, Cassia obtusifolia L.; conditions: Table 58 (forage); foliar-applied; after approximately 21 days; 1.1 gai/ha alone
Method: as §1, with “Seeds or root cuttings” for “Seeds”, “126.6” for “103.2”, “14-60” for “7-36”, “approximately 28°” for “about 18°”, “24°” for “17°”, “BBCH13 to BBCH23” for “second or third true”
as §8, §9, §10

[9] = system: POROL (Portulaca oleracea, portulaca); assay: as above; format: in vivo, Portulaca oleracea L.; conditions: Table 58 (forage); foliar-applied; after approximately 21 days; 1.1 gai/ha alone
Method: as §1, with “Seeds or root cuttings” for “Seeds”, “126.6” for “103.2”, “14-60” for “7-36”, “approximately 28°” for “about 18°”, “24°” for “17°”, “BBCH13 to BBCH23” for “second or third true”
as §8, §9, §10

## COc1cc(OC)nc(NC(=O)NS(=O)(=O)N(C)S(C)(=O)=O)n1 [Amidosulfuron]
[1]
  Weed Control GALAP Obs: 48%
[2]
  Weed Control LAMPU Obs: 0%
[3]
  Weed Control VERPE Obs: 0%

## COc1cc(OC)nc(NC(=O)NS(=O)(=O)c2ncccc2C(F)(F)F)n1 [Flazasulfuron, N-[[(4,6-dimethoxy-2-pyrimidinyl)amino]carbonyl]-3-(trifluoromethyl)-2-pyridinesulfonamide, reference compound]
[4]; 25 gai/ha
  Visual Weed Control Obs: 0%
[4]; 50 gai/ha
  Visual Weed Control Obs: 10%
[5]; 50 gai/ha
  Visual Weed Control Obs: 50%
[5]; 100 gai/ha
  Visual Weed Control (%) Obs: 50%
  Visual Weed Control Obs: 50%
[6]
  Visual Weed Control (%) - 27 DAA SETFA Obs: 62%

## COC(=O)c1ccccc1S(=O)(=O)NC(=O)Nc1nc(C)nc(OC)n1 [Metsulfuron ME]
[7]
  Weed Control SIDSP Obs: 52%
[8]
  Weed Control CASOB Obs: 8%
[9]
  Weed Control POROL Obs: 80%
